Measurements from US6410218B1, “Plasma-like solution” (BioTime, Inc., priority 1993, dated 2002).

Tests used:
[1] = Buffering capacity in a cell-free system (addition of 1.25 M HCl); type: physicochemical
Experimental: By contrast, the pH of HLB solution (initial pH 7.7) drops below 7.2 with the addition of about 0.01 ml of a 1.25 M HCl solution.
When the solution of the present invention is used as a blood substitute at hypothermic temperatures, medical grade sterile NaHCO3 is added to the heat sterilized solution (HL solution). The solution containing NaHCO3 is called HLB solution. Under in vivo conditions with oxygenation, HLB solution is shown to maintain pH above 7.3 in temperatures ranging from 1.6-36.1° C. (Tables 2 and 3).

[2] = cited from earlier work

Row | Molecule | initial pH ([1]; cell-free solution before HCl addition) | volume of 1.25 M HCl solution added with pH maintained above 7.2 ([1]; cell-free, initial pH about 7.7) | share of dose eliminated in the urine ([2]; 500 ml intravenous dose of 6% solution, after 24 hours) | share of dose remaining circulating ([2]; after 1 week)
1 | NCC(CO)(CO)CO [25 mM TRIS, Tris[Hydroxymethyl]methyl aminomethane] | about 7.7 | up to 0.12 mls |  | 
2 | hydroxyethyl starch |  |  | approximately 33% | Approximately 10%
